For four substances, cGMP levels results are on record in patent US20090035815A1, “Synthetic Gene for Enhanced Expression in E. Coli” (priority 2007, published 2009).

For this test, the system named is PC-12 cells. As to the kind of experiment: In-vitro bioassay of recombinant Nesiritide: cGMP induction in PC-12 cells. Format: cell-based, Rat. Particulars: 30 mins. The text has this:
In all five batches of Nesiritide of the present invention, the cGMP induction in PC-12 cells the Nesiritide concentration (nM) is directly proportional to the concentration of Nesiritide used in culture. Culture format: 24-well plate; Cells used: PC-12 cells (Rat adrenal pheochromocytoma); no. of cells plated: 1.0×10^6 cells per well; Parameter measured: cGMP from cell lysate; Method used: Competitive Inhibition Assay (Acetylated format); Kit used: Correlate-EIA cGMP kit Assay Design Inc., USA.
Nesiritide is known to elicit its biological activity via a cGMP second messenger system in vitro and in vivo. PC-12 cells were plated in Plain RPMI medium in 24-well plate and equilibrated at 37° C., 5% CO2 incubator for 2 hrs. Prestimulation medium (RPMI+0.1% BSA+0.1 mM IBMX) was added to cells for 10 mins. It was followed by the addition of different concentrations of Nesiritide for 30 mins at 37° C., 5% CO2 incubator. The cells were lysed with 0.1M HCL for 20 mins followed by 5-7 freeze-thaw cycles. The cell lysates were centrifuged in microfuge at 10000 rpm for 10 mins at 4° C. Protein concentration of the supernatant was estimated by Bradford's method. The supernatant from cell lysates was assayed for cGMP concentration (FIG. 13) using a cGMP kit (Assay Design Inc). The cGMP from cell lysates was estimated from cGMP standard curve. ED50 value was calculated.

Turning to “USV B. No 5406: batch of recombinant nesiritide of the present invention (Seq. ID NO:2)”, the cGMP levels worked out at 0.133 ± 0.004 pmol/mL (Nesiritide Conc 25 nM); 0.161 ± 0.01 pmol/mL (Nesiritide Conc 50 nM); 0.383 ± 0.02 pmol/mL (Nesiritide Conc 75 nM); 0.444 ± 0.06 pmol/mL (Nesiritide Conc 100 nM); 0.799 ± 0.08 pmol/mL (Nesiritide Conc 150 nM); 1.214 ± 0.06 pmol/mL (Nesiritide Conc 200 nM).

Turning to “USV B. No 5606: batch of recombinant nesiritide of the present invention (Seq. ID NO:2)”, the cGMP levels amounted to 0.119 ± 0.01 pmol/mL (Nesiritide Conc 25 nM); 0.150 ± 0.03 pmol/mL (Nesiritide Conc 50 nM); 0.321 pmol/mL (Nesiritide Conc 75 nM); 0.475 ± 0.01 pmol/mL (Nesiritide Conc 100 nM); 0.787 ± 0.07 pmol/mL (Nesiritide Conc 150 nM); 1.006 ± 0.05 pmol/mL (Nesiritide Conc 200 nM).

Consider “b-type natriuretic peptide (1-32) [Bachem, reference compound]”, for which the cGMP levels (Nesiritide Conc 25 nM) came to 0.121 ± 0.006 pmol/mL; the cGMP levels (Nesiritide Conc 50 nM) was found to be 0.164 ± 0.05 pmol/mL; the cGMP levels (Nesiritide Conc 75 nM) came out at 0.327 ± 0.05 pmol/mL; the cGMP levels (Nesiritide Conc 100 nM) stood at 0.502 ± 0.05 pmol/mL; the cGMP levels (Nesiritide Conc 150 nM) is 0.793 ± 0.02 pmol/mL; the cGMP levels (Nesiritide Conc 200 nM) was determined as 1.206 ± 0.08 pmol/mL.

For “USV B. No 5706: batch of recombinant nesiritide of the present invention (Seq. ID NO:2)”, the cGMP levels (Nesiritide Conc 25 nM) was determined as 0.114 ± 0.005 pmol/mL; the cGMP levels (Nesiritide Conc 50 nM) was determined as 0.191 ± 0.01 pmol/mL; the cGMP levels (Nesiritide Conc 75 nM) is 0.305 ± 0.05 pmol/mL; the cGMP levels (Nesiritide Conc 100 nM) came out at 0.478 ± 0.06 pmol/mL; the cGMP levels (Nesiritide Conc 150 nM) was found to be 0.756 ± 0.02 pmol/mL; the cGMP levels (Nesiritide Conc 200 nM) is 1.085 ± 0.06 pmol/mL.
